# Assay results as given in patent US20150219624A1, “METHODS FOR IDENTIFYING ANTI-CANCER COMPOUNDS” (MEMORIAL SLOAN KETTERING CANCER CENTER, priority 2013, published 2015).
# Where “and” joins values, the source holds several entries; their conditions need not be identical. Identical values can stand only once.
# Experiment: In vivo toxicity studies (body and organ weights, hematology, clinical chemistry, histopathology)
# Description: Toxicity studies. Eight week-old C57Bl/6NTac female mice were randomly assigned to either control or treatment groups. Each treatment group received one daily dose of test article through i.p. injection over 5 consecutive days. Toxicity was monitored by weight loss and daily clinical observation for the 14 days following test article administration. 24 hours after the last test article administration 4 mice in each group were sacrificed and clinical chemistry, hematology and tissue specific histopathology were done at autopsy. The remaining mice (n=2 per group) were kept under observation for an additional 13 days; at that point all mice were sacrificed and clinical chemistry, hematology and tissue specific histopathology were done at time of autopsy.
# D) KOPT-K1 xenograft studies.
# [1] = 0.2 mg/kg, female, Day 5, individual animals
# [2] = 0.2 mg/kg, female, Day 19, % change of mean vs vehicle
# [3] = 0.2 mg/kg, female, Day 19, group mean
# [4] = 0.2 mg/kg, female, Day 19, individual animals
# [5] = bone marrow cytology, count of 300 total cells, individual animals Treatment #7-#10
# [6] = bone marrow cytology, individual animals Treatment #7-#10
# [7] = spleen cytology, individual animals Treatment #7-#10
# [8] = therapeutic doses (0.2 mg/kg i.p.)
substance,measurement,setting,value
(±)-CR-31-B,NEUT,[1],1.05 K/uL and 1.69 K/uL and 1.40 K/uL and 1.70 K/uL
same,NEUT %,[1],21.94% and 24.51% and 28.20% and 24.44%
same,Na,[1],152 mEq/L and 147 mEq/L (2×) and 150 mEq/L
same,PLT,[1],872 K/uL and 673 K/uL and 676 K/uL and 682 K/uL
same,RBC,[1],9.31 M/uL and 8.95 M/uL and 8.69 M/uL and 8.89 M/uL
same,RDW %,[1],15.6% and 16.1% and 15.2% and 16.4%
same,Right Kidney,[1],0.119 gm and 0.125 gm (2×) and 0.135 gm and 0.75 % body wt and 0.73 % body wt and 0.77 % body wt and 0.78 % body wt
same,Spleen,[1],0.049 gm and 0.070 gm and 0.086 gm and 0.064 gm and 0.31 % body wt and 0.41 % body wt and 0.49 % body wt and 0.40 % body wt
same,TBIL,[1],0.2 mg/d L (3×) and 0.1 mg/d L
same,TP,[1],5.1 g/dL and 4.8 g/dL (2×) and 4.9 g/dL
same,WBC,[1],4.78 K/uL and 6.90 K/uL and 4.98 K/uL and 6.96 K/uL
same,BASO % % ChVh,[2],27.3%
same,BASO (K/uL) % ChVh,[2],−100.0%
same,Body Weight % ChVh,[2],3.6%
same,EOS % % ChVh,[2],5.5%
same,EOS (K/uL) % ChVh,[2],−50.0%
same,HCT % % ChVh,[2],0.2%
same,HGB % ChVh,[2],−5.0%
same,LYM % % ChVh,[2],−0.1%
same,LYM (K/uL) % ChVh,[2],−58.8%
same,Left Kidney (% body wt) % ChVh,[2],−9.1%
same,Left Kidney (gm) % ChVh,[2],−11.8%
same,Liver (% body wt) % ChVh,[2],4.1%
same,Liver (gm) % ChVh,[2],7.9%
same,MCH % ChVh,[2],-4.5%
same,MCHC % ChVh,[2],-5.4%
same,MCV % ChVh,[2],0.4%
same,MONO % % ChVh,[2],−34.0%
same,MONO (K/uL) % ChVh,[2],−70.0%
same,MPV % ChVh,[2],4.3%
same,NEUT % % ChVh,[2],3.7%
same,NEUT (K/uL) % ChVh,[2],−56.3%
same,PLT % ChVh,[2],10.5%
same,RBC % ChVh,[2],−0.2%
same,RDW % % ChVh,[2],0.6%
same,Right Kidney (% body wt) % ChVh,[2],−6.3%
same,Right Kidney (gm) % ChVh,[2],−3.6%
same,Spleen (% body wt) % ChVh,[2],0.0%
same,Spleen (gm) % ChVh,[2],3.2%
same,WBC % ChVh,[2],−58.5%
same,BASO,[3],0.00 K/uL
same,BASO %,[3],0.14%
same,Body Weight,[3],17.981 gm
same,EOS,[3],0.02 K/uL
same,EOS %,[3],0.58%
same,HCT %,[3],44.2%
same,HGB,[3],13.2 g/dL
same,LYM,[3],2.46 K/uL
same,LYM %,[3],84.19%
same,MCH,[3],14.7 pg
same,MCHC,[3],29.9 g/dL
same,MCV,[3],49.0 fL
same,MONO,[3],0.03 K/uL
same,MONO %,[3],0.93%
same,MPV,[3],4.8 fL
same,NEUT,[3],0.42 K/uL
same,NEUT %,[3],14.16%
same,PLT,[3],1196.5 K/uL
same,RBC,[3],9.02 M/uL
same,RDW %,[3],16.3%
same,WBC,[3],2.93 K/uL
same,"2D. Individual chemistry, column 2 (head not shown; probably ALP)",[4],144 and 160
same,"2D. Individual chemistry, column 3 (head not shown; probably ALT)",[4],20 and 22
same,"2D. Individual chemistry, column 4 (head not shown; probably AST)",[4],33 and 38
same,"2D. Individual chemistry, column 5 (head not shown; probably GGT)",[4],0
same,"2D. Individual chemistry, column 6 (head not shown; probably albumin)",[4],2.9
same,"2D. Individual chemistry, column 7 (head not shown; probably total protein)",[4],4.7
same,"2D. Individual chemistry, column 8 (head not shown; probably globulin)",[4],1.8
same,"2D. Individual chemistry, column 10 (head not shown; probably total bilirubin)",[4],0.1
same,"2D. Individual chemistry, column 11 (head not shown; probably BUN)",[4],29 and 35
same,"2D. Individual chemistry, column 12 (head not shown; probably creatinine)",[4],0.2
same,BASO,[4],0.00 K/uL
same,BASO %,[4],0.14% and 0.13%
same,Body Weight,[4],18.769 gm and 17.192 gm
same,CHOL,[4],71 mg/dL and 59 mg/dL
same,Ca,[4],9.0 mg/dL and 9.4 mg/dL
same,Cl,[4],112 mEq/L and 117 mEq/L
same,EOS,[4],0.02 K/uL
same,EOS %,[4],0.50% and 0.66%
same,GLUC,[4],254 mg/dL and 227 mg/dL
same,HCT %,[4],45.9% and 42.5%
same,HGB,[4],13.4 g/dL and 13.0 g/dL
same,K,[4],3.5 mEq/L and 4.0 mEq/L
same,LYM,[4],2.80 K/uL and 2.12 K/uL
same,LYM %,[4],83.42% and 84.96%
same,Left Kidney,[4],0.111 gm and 0.113 gm and 0.73 % body wt and 0.66 % body wt
same,Liver,[4],1.111 gm and 0.988 gm and 5.92 % body wt and 5.75 % body wt
same,MCH,[4],14.4 pg and 14.9 pg
same,MCHC,[4],29.2 g/dL and 30.6 g/dL
same,MCV,[4],49.2 fL and 48.8 fL
same,MONO,[4],0.03 K/uL and 0.02 K/uL
same,MONO %,[4],0.91% and 0.95%
same,MPV,[4],4.6 fL and 4.9 fL
same,NEUT,[4],0.51 K/uL and 0.33 K/uL
same,NEUT %,[4],15.03% and 13.29%
same,Na,[4],147 mEq/L and 149 mEq/L
same,PLT,[4],990 K/uL and 1403 K/uL
same,RBC,[4],9.33 M/uL and 8.70 M/uL
same,RDW %,[4],16.4% and 16.2%
same,Right Kidney,[4],0.137 gm and 0.127 gm and 0.73 % body wt and 0.74 % body wt
same,Spleen,[4],0.081 gm and 0.048 gm and 0.43 % body wt and 0.28 % body wt
same,WBC,[4],3.36 K/uL and 2.50 K/uL
same,Lymph,[5],64 and 60 and 61 and 44
same,Mast,[5],0
same,Mat ery,[5],56 and 62 and 45 and 38
same,Mat myel,[5],122 (2×) and 88 (2×) and 120 (2×) and 121 (2×)
same,Plasma,[5],0
same,Pro myel,[5],34 and 64 and 52 and 72
same,Prol ery,[5],24 and 26 and 22 and 25
same,Total Ery,[5],80 and 88 and 67 and 63
same,Total myel,[5],156 and 152 and 172 and 193
same,% Lymph,[6],21.3% and 20.0% and 20.3% and 14.7%
same,% Mast,[6],0.0%
same,% Mat ery,[6],18.7% and 20.7% and 15.0% and 12.7%
same,% Plasma,[6],0.0%
same,% Pro ery,[6],8.0% and 8.7% and 7.3% and 8.3%
same,% Pro myel,[6],11.3% and 21.3% and 17.3% and 24.0%
same,% T ery,[6],26.7% and 29.3% and 22.3% and 21.0%
same,% T myel,[6],52.0% and 50.7% and 57.3% and 64.3%
same,% mat myel,[6],40.7% and 29.3% and 40.0% and 40.3%
same,M:E,[6],2.0 and 1.7 and 2.6 and 3.1
same,intestinal histology,during and after treatment,No changes
same,% Erythroid,[7],0% (3×) and 1%
same,% Lymph,[7],94% (2×) and 90% (4×) and 86% (2×)
same,% Macrophage,[7],2% (3×) and 0%
same,% Mesenchymal,[7],0% (3×) and 2%
same,% Myeloid,[7],4% and 7% and 9% and 10%
same,% Plasma,[7],0% (3×) and 1%
same,"other blood counts, bone marrow cytology, serum chemistry",[8],no other changes
same,white cell count,[8],reversible drop in white cell count with a nadir on day 19
